From patent US20220009922A1, “NOVEL UREA 6,7-DIHYDRO-4H-PYRAZOLO[4,3-C]PYRIDINES ACTIVE AGAINST THE HEPATITIS B VIRUS (HBV)” (AiCuris GmbH & Co. KG, priority 2018, published 2022)
Read-outs that look alike come from different tables or passages of the source.

Key:
HBV = conditions: read-out: Cell Activity (EC50)
HepAD38 cells = test: Cell viability assay (AlamarBlue) in HepAD38 cells; conditions: HepAD38 cells in the presence of 0.3 μg/ml tetracycline, six days incubation
[1] = Hepatitis B virus, HePAD38, 144 h

| SMILES | EC50 (HBV; [1]) | EC50 (HBV; HepAD38 cells, HBV DNA in supernatant at day 6, qPCR) | CC50 (HepAD38 cells) |
| --- | --- | --- | --- |
| O=C(Nc1ccc(F)c(Cl)c1)N1CCc2n[nH]c(C(=O)N3CC(F)(F)CC34CC4)c2C1 [Example 7, N-(3-chloro-4-fluorophenyl)-3-{6,6-difluoro-4-azaspiro[2.4]heptane-4-carbonyl}-2H,4H,5H,6H,7H-pyrazolo[4,3-c]pyridine-5-carboxamide] | < 1000 nM | – | – |
| O=C(Nc1ccc(F)c(Cl)c1)N1CCc2n[nH]c(C(=O)N3CCCOCC34CC4)c2C1 [Example 11, N-(3-chloro-4-fluorophenyl)-3-{8-oxa-4-azaspiro[2.6]nonane-4-carbonyl}-2H,4H,5H,6H,7H-pyrazolo[4,3-c]pyridine-5-carboxamide] | < 1000 nM | – | – |
| CN(C(=O)c1n[nH]c2c1CN(C(=O)Nc1ccc(F)c(Cl)c1)CC2)C1(CO)CC1 [Example 3, N5-(3-chloro-4-fluorophenyl)-N3-[1-(hydroxymethyl)cyclopropyl]-N3-methyl-1H,4H,5H,6H,7H-pyrazolo[4,3-c]pyridine-3,5-dicarboxamide] | < 1000 nM | – | – |
| CN(C(=O)c1[nH]nc2c1CN(C(=O)Nc1ccc(F)c(Cl)c1)CC2)C1(COC(=O)C2(N)CC2)CC1 [Example 10, (1-{-methyl5-[(3-chloro-4-fluorophenyl)carbamoyl]-2H,4H,5H, 6H,7H-pyrazolo[4,3-c]pyridine-3-amido}cyclopropyl)methyl 1-aminocyclopropane-1-carboxylate] | < 1000 nM | – | – |
| CC1Cc2n[nH]c(C(=O)N3CC(F)(F)CC34CC4)c2CN1C(=O)Nc1ccc(F)c(Cl)c1 (single isomer, unassigned) [Example 8, N-(3-chloro-4-fluorophenyl)-3-{6,6-difluoro-4-azaspiro[2.4]heptane-4-carbonyl}-6-methyl-2H,4H,5H,6H,7H-pyrazolo[4,3-c]pyridine-5-carboxamide] | < 1000 nM | – | – |
| CC(C)OCC1(N(C)C(=O)c2n[nH]c3c2CN(C(=O)Nc2ccc(F)c(Cl)c2)CC3)CC1 [Example 5, N5-(3-chloro-4-fluorophenyl)-N3-methyl-N3-{1-[(propan-2-yloxy)methyl]cyclopropyl}-1H,4H,5H,6H,7H-pyrazolo[4,3-c]pyridine-3,5-dicarboxamide] | < 1000 nM | – | – |
| CCOCC1(N(C)C(=O)c2n[nH]c3c2CN(C(=O)Nc2ccc(F)c(Cl)c2)CC3)CC1 [Example 6, N5-(3-chloro-4-fluorophenyl)-N3-[1-(ethoxymethyl)cyclopropyl]-N3-methyl-1H,4H,5H,6H,7H-pyrazolo[4,3-c]pyridine-3,5-dicarboxamide] | < 1000 nM | – | – |
| CN(C(=O)c1n[nH]c2c1CN(C(=O)Nc1ccc(F)c(Cl)c1)CC2)C1(COC(F)F)CC1 [Example 1, N5-(3-chloro-4-fluorophenyl)-N3-{1-[(difluoromethoxy)methyl]cyclopropyl}-N3-methyl-1H,4H,5H,6H,7H-pyrazolo[4,3-c]pyridine-3,5-dicarboxamide] | < 1000 nM | – | – |
| O=C(Nc1ccc(F)c(Cl)c1)N1CCc2n[nH]c(C(=O)N3CCC(O)CC34CC4)c2C1 (stereo not shown) [Example 12, N-(3-chloro-4-fluorophenyl)-3-{7-hydroxy-4-azaspiro[2.5]octane-4-carbonyl}-2H,4H,5H,6H,7H-pyrazolo[4,3-c]pyridine-5-carboxamide] | < 1000 nM | – | – |
| CC1Cc2n[nH]c(C(=O)N3CC(F)(F)CC34CC4)c2CN1C(=O)Nc1ccc(F)c(Cl)c1 (single isomer, unassigned) [Example 9, N-(3-chloro-4-fluorophenyl)-3-{6,6-difluoro-4-azaspiro[2.4]heptane-4-carbonyl}-6-methyl-2H,4H,5H,6H,7H-pyrazolo[4,3-c]pyridine-5-carboxamide] | – | < 1000 nM | > 10000 nM |
| COCC1(N(C)C(=O)c2n[nH]c3c2CN(C(=O)Nc2ccc(F)c(C#N)c2)CC3)CC1 [Example 4, N5-(3-cyano-4-fluorophenyl)-N3-[1-(methoxymethyl)cyclopropyl]-N3-methyl-1H,4H,5H,6H,7H-pyrazolo[4,3-c]pyridine-3,5-dicarboxamide] | < 1000 nM | – | – |
| COCC1(N(C)C(=O)c2n[nH]c3c2CN(C(=O)Nc2ccc(F)c(Cl)c2)CC3)CC1 [Example 2, N5-(3-chloro-4-fluorophenyl)-N3-[1-(methoxymethyl)cyclopropyl]-N3-methyl-1H,4H,5H,6H,7H-pyrazolo[4,3-c]pyridine-3,5-dicarboxamide] | < 1000 nM | – | – |
